Reference: the NIST ThermoML archive (doi:10.1021/je060271a)
“And” between values parts separate entries of the source, which are not always exact repeats. Equal values may be shown once.

Conditions: Liquid, Vibrating tube method

CCCCC(=O)OCC(COC(=O)CCCC)(COC(=O)CCCC)COC(=O)CCCC [pentaerythritol tetrapentanoate]
Conditions | mass density
283.14 K, 1387.6 kPa | 1027.8 kg/m3
283.14 K, 1404.2 kPa | 1027.9 kg/m3
283.14 K, 1537.6 kPa | 1028 kg/m3
283.14 K, 1581.5 kPa | 1028 kg/m3
283.14 K, 1602.2 kPa | 1028 kg/m3
283.14 K, 7137 kPa | 1031.3 kg/m3
283.14 K, 7155.5 kPa | 1031.2 kg/m3
283.14 K, 7173.8 kPa | 1031.2 kg/m3
283.14 K, 7196.4 kPa | 1031.2 kg/m3
283.14 K, 7215.6 kPa | 1031.3 kg/m3
283.14 K, 7545.3 kPa | 1031.5 kg/m3
283.14 K, 7570.8 kPa | 1031.5 kg/m3
283.14 K, 7613.2 kPa | 1031.4 kg/m3
283.14 K, 7932.2 kPa | 1031.7 kg/m3
283.14 K, 7959.6 kPa | 1031.7 kg/m3
283.14 K, 7982.3 kPa | 1031.7 kg/m3
283.14 K, 8033 kPa | 1031.8 kg/m3
283.14 K, 8056.3 kPa | 1031.7 kg/m3
283.14 K, 8103.7 kPa | 1031.7 kg/m3
283.14 K, 8185.7 kPa | 1031.9 kg/m3
283.14 K, 9062.7 kPa | 1032.4 kg/m3
283.14 K, 9128.2 kPa | 1032.3 kg/m3
283.14 K, 9352.3 kPa | 1032.5 kg/m3
283.14 K, 9390.6 kPa | 1032.6 kg/m3
283.14 K, 9422.3 kPa | 1032.5 kg/m3
283.14 K, 9460.6 kPa | 1032.5 kg/m3
283.14 K, 9493.3 kPa | 1032.5 kg/m3
283.14 K, 9525.9 kPa | 1032.5 kg/m3
283.14 K, 9558.8 kPa | 1032.6 kg/m3
283.14 K, 10081 kPa | 1032.9 kg/m3
283.14 K, 10162 kPa | 1032.9 kg/m3
283.14 K, 11953 kPa | 1034 kg/m3
283.15 K, 105.8 kPa | 1027.1 kg/m3
283.15 K, 106 kPa | 1027.1 kg/m3 and 1027.2 kg/m3
283.15 K, 106.2 kPa | 1027.2 kg/m3 and 1027.1 kg/m3 and 1027 kg/m3
283.15 K, 106.3 kPa | 1027.2 kg/m3
283.15 K, 106.7 kPa | 1027.2 kg/m3
283.15 K, 107.6 kPa | 1027.1 kg/m3
283.15 K, 108.1 kPa | 1027.1 kg/m3
283.15 K, 109.5 kPa | 1027 kg/m3
283.15 K, 111.9 kPa | 1027.2 kg/m3
283.15 K, 117.3 kPa | 1027.1 kg/m3
283.15 K, 124.3 kPa | 1027.1 kg/m3
283.15 K, 130.2 kPa | 1027.2 kg/m3
283.15 K, 135 kPa | 1027.1 kg/m3
283.15 K, 140.8 kPa | 1027.1 kg/m3
283.15 K, 147.2 kPa | 1027.1 kg/m3
283.15 K, 154.9 kPa | 1027.1 kg/m3
283.15 K, 163.9 kPa | 1027.1 kg/m3
283.15 K, 178 kPa | 1027.2 kg/m3
283.15 K, 192.4 kPa | 1027.1 kg/m3
283.15 K, 213.6 kPa | 1027.1 kg/m3
283.15 K, 233.4 kPa | 1027.1 kg/m3
283.15 K, 247.7 kPa | 1027.2 kg/m3
283.15 K, 264 kPa | 1027.2 kg/m3
283.15 K, 279.7 kPa | 1027.1 kg/m3
283.15 K, 296.5 kPa | 1027.1 kg/m3
283.15 K, 313.2 kPa | 1027.2 kg/m3
283.15 K, 332 kPa | 1027.2 kg/m3
283.15 K, 349 kPa | 1027.3 kg/m3
283.15 K, 368.1 kPa | 1027.2 kg/m3
283.15 K, 391.4 kPa | 1027.3 kg/m3
283.15 K, 406.5 kPa | 1027.2 kg/m3
283.15 K, 423.1 kPa | 1027.4 kg/m3
283.15 K, 437.7 kPa | 1027.3 kg/m3
283.15 K, 452.6 kPa | 1027.3 kg/m3
283.15 K, 469.3 kPa | 1027.3 kg/m3
283.15 K, 482.3 kPa | 1027.4 kg/m3
283.15 K, 495.9 kPa | 1027.3 kg/m3
283.15 K, 512.7 kPa | 1027.3 kg/m3
283.15 K, 528.4 kPa | 1027.4 kg/m3
283.15 K, 544.4 kPa | 1027.4 kg/m3
283.15 K, 563 kPa | 1027.2 kg/m3
283.15 K, 579.3 kPa | 1027.3 kg/m3
283.15 K, 596.9 kPa | 1027.5 kg/m3
283.15 K, 618.9 kPa | 1027.3 kg/m3
283.15 K, 638.7 kPa | 1027.4 kg/m3
283.15 K, 659.6 kPa | 1027.5 kg/m3
283.15 K, 682 kPa | 1027.5 kg/m3
283.15 K, 710.3 kPa | 1027.4 kg/m3
